Data published in EP1974751A1, “Formulations for non-steroidal anti-inflammatory drugs” (The Jordanian Pharmaceutical Manufacturing Co., priority 2007, dated 2008).

optimal solubility of β-cyclodextrin (distilled water): 20 mM
β-cyclodextrin solubility (water): 230 mM
Structure (SMILES): OC[C@H]1O[C@@H]2O[C@H]3[C@H](O)[C@@H](O)[C@@H](O[C@H]4[C@H](O)[C@@H](O)[C@@H](O[C@H]5[C@H](O)[C@@H](O)[C@@H](O[C@H]6[C@H](O)[C@@H](O)[C@@H](O[C@H]7[C@H](O)[C@@H](O)[C@@H](O[C@H]8[C@H](O)[C@@H](O)[C@@H](O[C@H]1[C@H](O)[C@H]2O)O[C@@H]8CO)O[C@@H]7CO)O[C@@H]6CO)O[C@@H]5CO)O[C@@H]4CO)O[C@@H]3CO [β-cyclodextrin]
